# Values quoted from earlier work in article PMC2643498 (The Journal of Biological Chemistry, 2009).
# What was measured:
# AtNCED3 = conditions: 100 μM
# recombinant NCED = conditions: read-out: Ki (NCED)
# AtCCD1 = conditions: 100 μM
substance,measurement,setting,value
abamineSG,inhibition of AtNCED3,AtNCED3,78%
same,Ki,recombinant NCED,18.5 µM
same,inhibition of AtCCD1,AtCCD1,≤ 20%
